The text below walks through data of article PMC5467183 (ACS Medicinal Chemistry Letters, 2017).

Data set [1] in a line: Rat pharmacokinetics. It counts as in vivo.
Data set [2] is described as follows: physchem. The settings on record: pH 7.4, Sol. (kinetic solubility).
Data set [3] deals with CD86 surface expression on B cells. As to the kind of experiment: cells. To be noted: Mus musculus, B-cell, read-out: CD86 IC50.
For data set [4] the following is noted: rat hepatocytes.
The conditions of data set [5]: human hepatocytes.
For data set [6] the following is noted: MDCK, A to B.
The test system of data set [7] is collagen-induced arthritis (CIA) model in Lewis rat. To be noted: 0.05 mg/kg daily, days 10–17.

Consider `Cn1cc(-c2cccc(N3CCc4c(sc5c4CC(C)(C)C5)C3=O)c2CO)cc(Nc2ccncn2)c1=O` [compound 7], for which the “Rat CL (total clearance)” value in data set [1] (1 mg/kg i.v.) was 16 mL/min/kg. In addition, the clearance (in general, the volume of plasma or blood freed of the substance per unit of time) in data set [1] (in vivo, iv, 1 mg/kg) was found to be 16 mL/min/kg. The bioavailability (commonly dose-corrected exposure relative to a reference, in per cent) in data set [1] (in vivo, po, 5 mg/kg, pH 3) stood at 37%.

As for `Cn1cc(-c2cccc(N3CCc4cc(C(C)(C)C)ccc4C3=O)c2CO)cc(Nc2ccncn2)c1=O` [compound 9], the solubility (kinetic) (commonly solubility judged after dilution from a stock solution rather than from solid) in data set [2] is less than 2 µM. In data set [3], the IC50 (as a rule, the concentration that gives 50% inhibition) was less than 100 nM.

With `CN1CCN(c2ccc(Nc3cc(-c4cccc(N5CCn6c(cc7c6CCCC7)C5=O)c4CO)cn(C)c3=O)nc2)CC1` [compound 17], the “RHep (projected hepatic clearance)” value in data set [4] was 12. The “HHep (projected hepatic clearance)” value in data set [5] came to 10. Further, in data set [6], the Perm. result is reported as “MOD (MOD: 1–10 (10^–6 cm/s))”.

Consider `Cn1cc(-c2cccc(N3CCn4c(cc5c4CCCC5)C3=O)c2CO)cc(Nc2ccc(N3CCN(C4COC4)CC3)cn2)c1=O` [compound 18], for which the “RHep (projected hepatic clearance)” value in data set [4] was less than 10. The “HHep (projected hepatic clearance)” value in data set [5] was less than 6. Further, the Perm. result in data set [6] was “MOD (MOD: 1–10 (10^–6 cm/s))”.

Regarding `CN1CCN(c2ccc(Nc3cc(-c4cc(F)cc(N5CCn6c(cc7c6CCCC7)C5=O)c4CO)cn(C)c3=O)nc2)CC1` [compound 19], the “RHep (projected hepatic clearance)” value in data set [4] is less than 10.1. Further, in data set [5], the “HHep (projected hepatic clearance)” value is less than 6.2. Also, the Perm. result in data set [6] is listed as “MOD (MOD: 1–10 (10^–6 cm/s))”.

In the case of `Cn1cc(-c2cc(F)cc(N3CCn4c(cc5c4CCCC5)C3=O)c2CO)cc(Nc2ccc(N3CCN(C4COC4)CC3)cn2)c1=O` [compound 20], the “RHep (projected hepatic clearance)” value in data set [4] is on record as less than 10. Moreover, in data set [5], the “HHep (projected hepatic clearance)” value was less than 6. Moreover, the Perm. result in data set [6] is given as “HIGH (HIGH: >10 (10^–6 cm/s))”.

For the compound `C[C@@H]1C[C@H]2[C@@H]3CCC4=CC(=O)C=C[C@]4(C)[C@@]3(F)[C@@H](O)C[C@]2(C)[C@@]1(O)C(=O)CO` [dexamethasone], the ankle diameter result in data set [7] is recorded as “significantly (by ANOVA) reduced toward normal”.
